Activity calls are given as the source filed them. No cut-off for these calls is given here.
Key:
[1] = system: Canis familiaris; assay: Renal vasodilator activity was determined in anesthetized dogs; type: functional; details: Canis lupus familiaris
[2] = species: Canis familiaris; assay: Maximum percent decrease in renal vascular resistance.; type: functional, Canis lupus familiaris
[3] = species: Rattus norvegicus; assay: In vitro dose stimulating D-1 adenylate cyclase in rat caudate nuclei; type: functional, organism-based
[4] = system: Canis familiaris; assay: cardiovascular activity was determined in anesthetized dogs.(Heart rate ); type: functional; details: Canis lupus familiaris
[5] = species: Canis familiaris; assay: Effective dose against Iliac vascular resistance (IVR); type: functional; details: Canis lupus familiaris
[6] = system: Canis familiaris; assay: cardiovascular activity was determined in anesthetized dogs.(Mean arterial blood pressure); type: functional; details: Canis lupus familiaris
[7] = system: Rattus norvegicus; assay: Compound was tested for its CNS activity in vivo by determining drug-induced rotation in rats with 6-hydroxydopamine induced lesions of the SNx rats after ip administration measured as dose-turns; 10-no significant activity; type: functional, organism-based; details: Central nervous system
[8] = species: Rattus norvegicus; assay: In vitro inhibition of dopamine stimulated production of [14C]cAMP from [14C]-ATP in homogenates of rat caudate; No significant activity at 10 uM; type: functional
[9] = system: Rattus norvegicus; assay: Compound was tested for its CNS activity in vivo in SNx rats with 6-hydroxydopamine induced lesions after ip administration; type: functional, Central nervous system
[10] = species: Rattus norvegicus; assay: In vitro dose stimulating D-1 adenylate cyclase in rat caudate nuclei at 10 uM; type: functional
[11] = species: Rattus norvegicus; assay: In vitro inhibition of dopamine stimulated production of [14C]-cAMP from [14C]-ATP in homogenates of rat caudate; type: functional
[12] = species: Rattus norvegicus; assay: In vitro inhibition of dopamine stimulated production of [14C]cAMP from [14C]-ATP in homogenates of rat caudate at the concentration of 10 uM; type: functional
[13] = species: Rattus norvegicus; assay: In vitro dose stimulating D-1 adenylate cyclase in rat caudate nuclei as % dopamine response at 10 uM; type: functional
[14] = system: Rattus norvegicus; assay: Compound was tested for its CNS activity in vivo in SNx rats with 6-hydroxydopamine induced lesions after ic administration; type: functional, Central nervous system
[15] = system: Canis familiaris; assay: Cardiovascular activity was determined in anesthetized dogs.(Mean arterial blood pressure); type: functional; details: Canis lupus familiaris, Artery
[16] = species: Rattus norvegicus; assay: (§1) In vitro dose stimulating D-1 adenylate cyclase in rat caudate nuclei; No significant activity at 10 uM; type: functional
[17] = species: Rattus norvegicus; assay: as §1; type: functional; remark: listed apart in the source
[18] = system: Canis familiaris; assay: Cardiovascular activity was determined in anesthetized dogs.(Heart rate ); type: functional; details: Canis lupus familiaris
[19] = species: Rattus norvegicus; assay: In vitro inhibition of dopamine stimulated production of [14C]cAMP from [14C]-ATP in homogenates of rat caudate at the concentration of 1 uM; type: functional
[20] = system: Rattus norvegicus; assay: Compound was tested for its CNS activity in vivo in SNx rats with 6-hydroxydopamine induced lesions after ip administration measured as dose-turns; 10-No significant activity; type: functional, organism-based; details: Central nervous system
[21] = system: Canis familiaris; assay: Renal vasodilator activity in anesthetized dogs; I= no significant activity at 300 ug/kg/min; type: functional, organism-based; details: Canis lupus familiaris
[22] = system: Canis familiaris; assay: Renal vasodilator activity in anesthetized dogs; no significant activity at 1000 ug/kg/stat; type: functional, organism-based; details: Canis lupus familiaris

Row | Structure (SMILES) | ED15 [1] [mg/kg] | Decrease [2] [%] | EC50 [3] [nM] | ED20 [4] [mg/kg] | ED30 [5] [mg/kg] | ED20 [6] [mg/kg] | RD500 [9] | other results
1 | Br.Oc1ccc(C2CNCCc3c2cc(O)c(O)c3F)cc1 (stereo unspecified) | 0.00083 | 28 | 200 | 0.00581 | 6.06 | 6.06 |  | 
2 | Cl.Oc1ccc(C2CNCCc3c(Cl)c(O)c(O)c(Cl)c32)cc1 (stereo unspecified) | 0.62 | 41 | 2600 | 6.2 | 6.2 | 6.2 |  | RD500 [7]: inactive
3 | Cl.Oc1c(O)c(Cl)c2c(c1Cl)CCNCC2c1ccccc1 (stereo unspecified) | 0.01 | 59 | 1250 | 6.08 | 6.08 | 6.08 |  | inhibition [8]: inactive
4 | Br.CN1CCc2c(cc(O)c(O)c2Br)C(c2ccccc2)C1 (stereo unspecified) |  |  |  |  |  |  | 0.015 mg/kg | Stimulation [10]: 30%; IC50 [11]: 320 nM
5 | Br.Oc1ccc(C2CNCCc3c2cc(O)c(O)c3I)cc1 (stereo unspecified) | 0.0042 | 41 |  | 6.06 | 6.06 | 6.06 |  | inhibition [12]: 55%; Stimulation [13]: 36%
6 | NCCc1ccc(O)c(O)c1 [DOPAMINE] | 0.0035 | 43 |  | 0.378 | 0.151 |  |  | RD500 [14]: 0.1 ug rat-1; ED20 [15]: 0.378 mg/kg
7 | Cc1c(O)c(O)c(Cl)c2c1CCNCC2c1ccc(O)cc1.Cl (stereo unspecified) | 0.03 | 42 |  | 6.09 | 6.09 | 6.09 |  | inhibition [12]: 29%; Stimulation [16]: inactive
8 | CS(=O)(=O)O.Cc1c(O)c(O)cc2c1CCNCC2c1ccc(O)cc1 (stereo unspecified) | 0.0028 | 41 |  | 6.06 | 6.06 | 6.06 |  | inhibition [12]: 50%; Stimulation [10]: 30%
9 | Cc1c(O)c(O)c(Cl)c2c1C(c1ccc(O)cc1)CNCC2 (stereo unspecified) |  |  |  |  |  |  |  | inhibition [8]: inactive; Stimulation [16]: inactive
10 | Br.Oc1ccc(C2CNCCc3c2cc(O)c(O)c3Br)cc1 (stereo unspecified) | 0.005 | 56 | 150 | 30.4 | 0.07 | 30.4 |  | RD500 [7]: inactive
11 | Br.Oc1ccc(C2CNCCc3cc(O)c(O)c(Cl)c32)cc1 (stereo unspecified) |  |  |  |  |  |  |  | inhibition [8]: inactive; EC50 [17]: Not Active
12 | CS(=O)(=O)O.Oc1ccc(C2CNCCc3c2cc(O)c(O)c3Cl)cc1 (stereo unspecified) [FENOLDOPAM MESYLATE] | 0.0003 | 59 | 48 | 1.82 | 1.82 | 1.82 | 0.5 ug rat-1 | RD500 [7]: inactive
13 | Br.Oc1cc2c(c(F)c1O)CCNCC2c1ccccc1 (stereo unspecified) | 0.009 | 36 | 40 |  | 54 |  |  | inhibition [12]: 17%; ED20 [18]: 54 mg/kg; ED20 [15]: 54 mg/kg; inhibition [19]: 31%
14 | Br.Cc1c(O)c(O)cc2c1CCNCC2c1ccccc1 (stereo unspecified) |  |  | 100 |  |  |  | 1.28 mg/kg | 
15 | Br.Oc1cc2c(c(Br)c1O)CCNCC2c1ccccc1 (stereo unspecified) | 0.009 | 42 | 100 | 6.08 | 6.08 | 6.08 | 0.34 mg/kg | 
16 | Br.Cc1c(O)c(O)cc2c1C(c1ccc(O)cc1)CNCC2 (stereo unspecified) |  |  |  |  |  |  |  | inhibition [8]: inactive; EC50 [17]: Not Active
17 | CN1CCc2c(cc(O)c(O)c2Cl)C(c2ccc(O)cc2)C1 (stereo unspecified) |  |  | 22000 |  |  |  |  | IC50 [11]: 1400 nM
18 | Br.CN1CCc2c(cc(O)c(O)c2F)C(c2ccc(O)cc2)C1 (stereo unspecified) |  |  |  |  |  |  |  | inhibition [12]: 55%; Stimulation [10]: 36%
19 | Oc1cc2c(cc1O)C(c1ccccc1)CNCC2 (stereo unspecified) [SKF-38393] | 0.035 | 18 |  | 1.05 | 0.735 | 1.72 | 0.7 mg/kg | RD500 [14]: 0.18 ug rat-1
20 | Oc1ccc(C2CNCCc3cc(O)c(O)cc32)cc1 (stereo unspecified) |  |  | 200 |  |  |  |  | RD500 [20]: inactive
21 | CN1CCc2c(cc(O)c(O)c2Cl)C(c2ccccc2)C1.Cl (stereo unspecified) |  |  |  |  |  |  | 0.03 mg/kg | Stimulation [10]: 30%; IC50 [11]: 600 nM
22 | Br.Cc1c(O)c(O)cc2c1CCN(C)CC2c1ccccc1 (stereo unspecified) |  |  |  |  |  |  | 0.05 mg/kg | Activity [21]: inactive; Stimulation [10]: 20%; IC50 [11]: 440 nM
23 | Br.Oc1cccc(C2CNCCc3c2cc(O)c(O)c3Cl)c1 (stereo unspecified) | 0.00035 | 49 |  | 0.36 | 0.0119 | 2.12 |  | RD500 [7]: inactive
24 | Br.Oc1cc2c(c(Cl)c1O)CCNCC2c1ccccc1 (stereo unspecified) | 0.0035 | 39 |  | 0.378 | 2.92 | 6.07 | 0.3 mg/kg | RD500 [14]: 0.22 ug rat-1
25 | CN1CCc2cc(O)c(O)cc2C(c2ccccc2)C1.Cl (stereo unspecified) |  |  |  |  |  |  | 0.1 mg/kg | Stimulation [10]: 20%; IC50 [11]: 630 nM; RD500 [14]: 0.06 ug rat-1; Activity [22]: inactive
26 | Br.Oc1ccc(C2CNCCc3c(F)c(O)c(O)c(F)c32)cc1 (stereo unspecified) |  |  |  |  |  |  |  | inhibition [8]: inactive; EC50 [17]: Not Active
27 | Cc1c(O)c(O)c(C)c2c1CCNCC2c1ccc(O)cc1 (stereo unspecified) |  |  |  |  |  |  |  | inhibition [8]: inactive; Stimulation [16]: inactive
28 | Oc1ccc(C2CNCCc3c2cc(O)c(O)c3C(F)(F)F)cc1 (stereo unspecified) |  |  |  |  |  |  |  | RD500 [7]: inactive
